In USRE37781E1, “Substituted cyclic carbonyls and derivatives thereof useful as retroviral protease inhibitors” (DuPont Pharmaceuticals Company, priority 1991, dated 2002):
Where “and” joins values, the source holds several entries; their conditions need not be identical. Equal entries are not always repeated. Where two headings read alike, the source gives them in different places.

Tests used:
HIV protease = target: T1, HIV protease (Human immunodeficiency virus type 1 group M subtype B, UniProt P04585); assay: biochemical; set-up: species or system HIV-1; conditions: Table 1e; read-out: Ki
T1 construct: plasmid containing HIV protease under the control of an inducible T7 promoter; made in house; host or cells: E. coli (inclusion bodies, T7 promoter)
Description: HIV Protease Inhibition Assay—Spectroscopic Method
Inclusion bodies were solubilized in 8M urea, 50 mM tris pH 8.0. Protease activity was recovered by dilution 20-fold into buffer containing 50 mM sodium acetate pH 5.5, 1 mM EDTA, 10% glycerol and 5% ethylene glycol. Enzyme was used at a final concentration of 1.0-10 ug/ml.
Stock solutions of 10 mM were prepared in DMSO.
All further dilutions were done in DMSO.

[1] = target: single-chain tethered dimer of HIV protease (Human immunodeficiency virus 1, UniProt P04585); assay: biochemical; assay type: biochemical; set-up: fused on or other part: A second copy of the same protease unit is joined to the first by a short peptide tether, giving one polypeptide
HIV-1 (RF) in MT-2 cells = assay: microbe, parasite or virus in culture; assay type: cell-based; conditions: read-out: IC90
Summary of the method: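 Read-out: gag and pol viral RNA captured by 5′-biotinylated oligonucleotides on streptavidin-coated wells, detected with alkaline phosphatase-linked reporter oligonucleotides, calibrated against BH10 in vitro transcripts. Virus stocks (RF, MN, IIIB) come from H9 cultures; MT-2 host cells kept in RPMI 1640, 5% FCS.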

[2] = read-out: HPLC K1, Table 2d, class symbols
[3] = Human immunodeficiency virus 1, MT2, 48 h, Table 2d, class symbols
[4] = read-out: HPLC K1, Table 2d, HIV protease inhibition, HPLC method
[5] = Human immunodeficiency virus 1, MT2, 48 h, Table 2d, HIV RNA assay
[6] = Human immunodeficiency virus 1, MT2, Table 2i
[7] = Human immunodeficiency virus 1, MT2, Table 2q

| Structure (SMILES) | melting point | Ki [1, 2] [nM] | IC90 (HIV-1 (RF) in MT-2 cells; [3]) [µg/mL] | Ki [1, 4] [nM] | IC90 (HIV-1 (RF) in MT-2 cells; [5]) [µg/mL] | further results |
| --- | --- | --- | --- | --- | --- | --- |
| C=CCN1C(=O)N(CC=C)[C@H](Cc2ccccc2)[C@H](O)[C@H]1[C@H](O)Cc1ccccc1 [Example 8AA] |  |  |  |  |  | Ki (HIV protease): 10 to 1000 nM |
| COCCOCO[C@H]1[C@@H](Cc2ccccc2)N(Cc2ccc3ccccc3c2)C(=O)N(Cc2ccc3ccccc3c2)[C@@H]1C(F)Cc1ccccc1 (stereo partly drawn) [Example 8D] |  |  |  |  |  | Ki (HIV protease): 10 to 1000 nM |
| O=C1N(Cc2cccc(OCc3ccccc3)c2)C(Cc2ccccc2)C(O)C(C(F)Cc2ccccc2)N1Cc1cccc(OCc2ccccc2)c1 (stereo not drawn) [Example 8E] |  |  |  |  |  | Ki (HIV protease): 10 to 1000 nM |
| CC(=O)c1cccc(CN2C(=O)N(Cc3cccc(C(C)=O)c3)C(Cc3ccccc3)C(O)C(O)C2Cc2ccccc2)c1 (stereo not drawn) [Example 9P] | 158 to 159 °C | 10 to 1000 | < 10 |  |  |  |
| O=C1N(Cc2cccc(CCl)c2)C(Cc2ccccc2)C(O)C(O)C(Cc2ccccc2)N1Cc1cccc(CCl)c1 (stereo not drawn) [Example 9S] | 156 to 157 °C | 10 to 1000 | < 10 |  |  |  |
| CC(=O)c1cccc(CN2C(=O)N(Cc3cccc(Br)c3)C(Cc3ccccc3)C(O)C(O)C2Cc2ccccc2)c1 (stereo not drawn) [Example 9o] | 190 to 191 °C | 10 to 1000 | < 10 |  |  |  |
| NNC(=O)c1cccc(CN2C(=O)N(Cc3cccc(C(=O)NN)c3)C(Cc3ccccc3)C(O)C(O)C2Cc2ccccc2)c1 (stereo not drawn) [Example 10M] | 205 °C | < 10 | < 10 |  |  |  |
| CCOC(=O)c1ccc(CN2C(=O)N(Cc3ccc(C(=O)OCC)cc3)C(Cc3ccccc3)C(O)C(O)C2Cc2ccccc2)cc1 (stereo not drawn) [Example 11F] | 174 to 178 °C | 10 to 1000 | > 100 |  |  |  |
| O=C1NC(Cc2ccccc2)C(O)C(O)C(Cc2ccccc2)N1Cc1ccc(CO)cc1 (stereo not drawn) [Example 11N] | 112 to 114 °C | < 10 | < 10 |  |  |  |
| CSc1cccc(CN2C(=O)N(Cc3cccc(SC)c3)C(Cc3ccccc3)C(O)C(O)C2Cc2ccccc2)c1 (stereo not drawn) [Example 12R] | 169 °C and 169.3 °C | < 10 | < 10 |  |  |  |
| O=C1N(Cc2cccc(-c3cnc[nH]3)c2)C(Cc2ccccc2)C(O)C(O)C(Cc2ccccc2)N1Cc1cccc(-c2cnc[nH]2)c1 (stereo not drawn) [Example 15BK] | 171 to 175 °C |  |  | < 10 | < 10 |  |
| COC(=O)c1cccc(CN2C(=O)N(Cc3cccc(-c4cc[nH]n4)c3)C(Cc3ccccc3)C(O)C(O)C2Cc2ccccc2)c1 (stereo not drawn) [Example 15BP] | 127 to 130 °C |  |  | < 10 | < 10 |  |
| O=C1N(Cc2cccc(-c3ncc[nH]3)c2)C(Cc2ccccc2)C(O)C(O)C(Cc2ccccc2)N1Cc1cccc(-c2ncc[nH]2)c1 (stereo not drawn) [Example 15BR] | 178 to 180 °C |  |  | < 10 | < 10 |  |
| O=C1N(Cc2cccnc2)C(Cc2ccccc2)C(O)C(O)C(Cc2ccccc2)N1Cc1cccc(-c2cc[nH]n2)c1 (stereo not drawn) [Example 15BU] | 133 to 136 °C |  |  | < 10 | < 10 |  |
| O=C1N(Cc2cccc(-c3cc[nH]n3)c2)C(Cc2ccccc2)C(O)C(O)C(Cc2ccccc2)N1Cc1ccc(O)c(O)c1 (stereo not drawn) [Example 15CC] | 177 to 180 °C |  |  | < 10 | < 10 |  |
| Nc1cccc(CN2C(=O)N(Cc3cccc(-c4cc[nH]n4)c3)C(Cc3ccccc3)C(O)C(O)C2Cc2ccccc2)c1 (stereo not drawn) [Example 15CE] | 136 to 138 °C |  |  | < 10 | < 10 |  |
| N#Cc1cc(CN2C(=O)N(Cc3cccc(-c4cc[nH]n4)c3)C(Cc3ccccc3)C(O)C(O)C2Cc2ccccc2)ccc1F (stereo not drawn) [Example 15CF] | 118 to 120 °C |  |  | < 10 | < 10 |  |
| O=C1N(Cc2ccoc2)C(Cc2ccccc2)C(O)C(O)C(Cc2ccccc2)N1Cc1ccoc1 (stereo not drawn) [Example 15FN] | 152.5 to 153 °C |  |  |  |  | Ki ([1]; read-out: HPLC K1, HIV protease inhibition, HPLC method, Table 2d): < 10 nM; IC90 (HIV-1 (RF) in MT-2 cells; Human immunodeficiency virus 1, MT2, 48 h, HIV RNA assay, HIV-1 infected MT-2 cells, Table 2d): < 10 µg/mL |
| O=C1N(CCCCCO)C(Cc2ccccc2)C(O)C(O)C(Cc2ccccc2)N1Cc1ccc2ccccc2c1 (stereo not drawn) [Example 15VH] | 84.6 °C | < 10 | < 10 |  |  |  |
| O=C1N(Cc2cccc(OCCN3CCOCC3)c2)C(Cc2ccccc2)C(O)C(O)C(Cc2ccccc2)N1Cc1cccc(OCCN2CCOCC2)c1 (stereo not drawn) [Example 15YG] | 110 to 112 °C |  |  | 10 to 1000 | < 10 |  |
| O=C1N(CC2CC2)C(Cc2ccc([N+](=O)[O-])cc2)C(O)C(O)C(Cc2ccccc2[N+](=O)[O-])N1CC1CC1 (stereo not drawn) [Example 20A] | 209.8 °C |  |  |  |  | Ki ([1]; read-out: HPLC Ki, Table 2i): < 10 nM; IC90 (HIV-1 (RF) in MT-2 cells; [6]): < 10 µg/mL |
| O=C1N(CC2CC2)C(Cc2ccc([N+](=O)[O-])cc2)C(O)C(O)C(Cc2ccc([N+](=O)[O-])cc2)N1CC1CC1 (stereo not drawn) [Example 20B] | 227.5 °C |  |  |  |  | Ki ([1]; read-out: HPLC Ki, Table 2i): < 10 nM; IC90 (HIV-1 (RF) in MT-2 cells; [6]): < 10 µg/mL |
| O=S1(=O)N(CC2CC2)C(Cc2ccccc2)C(O)C(O)C(Cc2ccccc2)N1CC1CC1 (stereo not drawn) [Example 23F] | 71 to 72 °C |  |  |  |  | Ki ([1]; read-out: HPLC Ki, Table 2m): < 10 nM; IC90 (HIV-1 (RF) in MT-2 cells; Human immunodeficiency virus 1, MT2, Table 2m): < 10 µg/mL |
| OC1C(O)C(Cc2ccccc2)N(Cc2ccccc2)C(=S)N(Cc2ccccc2)C1Cc1ccccc1 (stereo not drawn) [Example 27A] | 92 to 94 °C |  |  |  |  | Ki ([1]; read-out: HPLC Ki, Table 2q): < 10 nM; IC90 (HIV-1 (RF) in MT-2 cells; [7]): < 10 µg/mL |
| OC1C(O)C(Cc2ccccc2)N(CC2CC2)C(=S)N(CC2CC2)C1Cc1ccccc1 (stereo not drawn) [Example 27B] | 84 to 86 °C |  |  |  |  | Ki ([1]; read-out: HPLC Ki, Table 2q): < 10 nM; IC90 (HIV-1 (RF) in MT-2 cells; [7]): < 10 µg/mL |
